Where two headings read alike, the source gives them in different places.
Key:
Assay in all cases: Test B pre-/postemergence plant response
Type in all cases: in vivo
[1] = tested on: corn (Zea mays); details: for Plant response rating, Corn: 1000 g ai/ha; for Corn plant response rating (crop injury, 0 = no effect, 100 = complete kill) at 125 g/ha: 125 g ai/ha
Text: (§1) Seeds of plant species selected from bamyardgrass (Echinochloa crus-galli), kochia (Kochia scoparia), ragweed (common ragweed, Ambrosia elatior), Italian ryegrass (Lolium multiflorum), large (Lg) crabgrass (Digitaria sanguinalis), giant foxtail (Setaria faberii), momingglory (Ipomoea spp.), pigweed (Amaranthus retroflexus), velvetleaf (Abutilon theophrasti), wheat (Triticum aestivum), and corn (Zea mays) were planted into a blend of loam soil and sand and treated preemergence with a directed soil spray using test chemicals formulated in a non-phytotoxic solvent mixture which included a surfactant. At the same time, plants selected from these crop and weed species and also blackgrass (Alopecurus myosuroides), and galium (catchweed bedstraw, Galium aparine) were planted in pots containing the same blend of loam soil and sand and treated with postemergence applications of test chemicals formulated in the same manner. Plants ranged in height from 2 to 10 cm and were in the one- to two-leaf stage for the postemergence treatment. Treated plants and untreated controls were maintained in a greenhouse for approximately 10 days, after which time all treated plants were compared to untreated controls and visually evaluated for injury. Plant response ratings, summarized in Table B, are based on a 0 to 100 scale where 0 is no effect and 100 is complete control. A dash (-) response means no test result.

[2] = tested on: morningglory (Ipomoea spp.); details: for Plant response rating, Morningglory: 1000 g ai/ha; for pest or weed control at 125 g/ha: 125 g ai/ha
Text: as §1

[3] = tested on: pigweed (Amaranthus retroflexus); details: for Plant response rating, Pigweed: 1000 g ai/ha; for pest or weed control at 125 g/ha: 125 g ai/ha
Text: as §1

[4] = tested on: barnyardgrass (Echinochloa crus-galli); details: for Plant response rating, Barnyardgrass: 1000 g ai/ha; for pest or weed control at 125 g/ha: 125 g ai/ha
Text: as §1

[5] = tested on: large (Lg) crabgrass (Digitaria sanguinalis); details: for Plant response rating, Crabgrass, Large: 1000 g ai/ha; for pest or weed control at 125 g/ha: 125 g ai/ha
Text: as §1

[6] = tested on: velvetleaf (Abutilon theophrasti); details: for Plant response rating, Velvetleaf: 1000 g ai/ha; for pest or weed control at 125 g/ha: 125 g ai/ha
Text: as §1

[7] = tested on: wheat (Triticum aestivum); details: for Plant response rating, Wheat: 1000 g ai/ha, 0 to 100 scale (0 no effect, 100 complete control); for plant injury at 125 g/ha: 125 g ai/ha
Text: as §1

[8] = tested on: giant foxtail (Setaria faberii); details: for Plant response rating, Foxtail, Giant: 1000 g ai/ha; for pest or weed control at 125 g/ha: 125 g ai/ha
Text: as §1

[9] = Postemergence, 0 to 100 scale (0 no effect, 100 complete control)
[10] = Preemergence, 0 to 100 scale (0 no effect, 100 complete control)
[11] = Preemergence, 31 g ai/ha, 0 to 100 scale (0 no effect, 100 complete control)

## Clc1cnc(Oc2ccccc2-c2cnco2)nc1 [Compound 7]
[1]; [9]
  Plant response rating, Corn: 10
[1]; [10]
  Plant response rating, Corn: 0
[2]; [9]
  Plant response rating, Morningglory: 40
[2]; [10]
  Plant response rating, Morningglory: 0
[3]; [9]
  Plant response rating, Pigweed: 20
[3]; [10]
  Plant response rating, Pigweed: 40
[4]; [9]
  Plant response rating, Barnyardgrass: 10
[4]; [10]
  Plant response rating, Barnyardgrass: 10
[5]; [9]
  Plant response rating, Crabgrass, Large: 20
[5]; [10]
  Plant response rating, Crabgrass, Large: 40
[6]; [9]
  Plant response rating, Velvetleaf: 10
[6]; [10]
  Plant response rating, Velvetleaf: 10
[7]; Postemergence
  Plant response rating, Wheat: 10
[7]; Preemergence
  Plant response rating, Wheat: 0
[8]; [9]
  Plant response rating, Foxtail, Giant: 20
[8]; [10]
  Plant response rating, Foxtail, Giant: 20

## Clc1cnc(Oc2ccccc2-c2cscn2)nc1 [Compound 8]
[1]; [9]
  Plant response rating, Corn: 0
[1]; [10]
  Plant response rating, Corn: 0
[2]; [9]
  Plant response rating, Morningglory: 10
[2]; [10]
  Plant response rating, Morningglory: 0
[3]; [9]
  Plant response rating, Pigweed: 70
[3]; [10]
  Plant response rating, Pigweed: 100
[4]; [9]
  Plant response rating, Barnyardgrass: 0
[4]; [10]
  Plant response rating, Barnyardgrass: 30
[5]; [9]
  Plant response rating, Crabgrass, Large: 10
[5]; [10]
  Plant response rating, Crabgrass, Large: 80
[6]; [9]
  Plant response rating, Velvetleaf: 30
[6]; [10]
  Plant response rating, Velvetleaf: 30
[7]; Postemergence
  Plant response rating, Wheat: 0
[7]; Preemergence
  Plant response rating, Wheat: 0
[8]; [9]
  Plant response rating, Foxtail, Giant: 0
[8]; [10]
  Plant response rating, Foxtail, Giant: 60

## Clc1cnc(Oc2ccccc2-c2cncs2)nc1 [Compound 9]
[1]; [9]
  Plant response rating, Corn: 10
[1]; [10]
  Plant response rating, Corn: 0
[2]; [9]
  Plant response rating, Morningglory: 50
[2]; [10]
  Plant response rating, Morningglory: 0
[3]; [9]
  Plant response rating, Pigweed: 60
[3]; [10]
  Plant response rating, Pigweed: 90
[4]; [9]
  Plant response rating, Barnyardgrass: 10
[4]; [10]
  Plant response rating, Barnyardgrass: 20
[5]; [9]
  Plant response rating, Crabgrass, Large: 50
[5]; [10]
  Plant response rating, Crabgrass, Large: 70
[6]; [9]
  Plant response rating, Velvetleaf: 40
[6]; [10]
  Plant response rating, Velvetleaf: 10
[7]; Postemergence
  Plant response rating, Wheat: 10
[7]; Preemergence
  Plant response rating, Wheat: 0
[8]; [9]
  Plant response rating, Foxtail, Giant: 20
[8]; [10]
  Plant response rating, Foxtail, Giant: 60

## FC(F)(F)c1cnc(Oc2ccccc2-c2cnc(Br)s2)nc1 [Compound 15, 2-[2-(2-bromo-5-thiazolyl)phenoxy]-5-(trifluoromethyl)pyrimidine]
[1]; [11]
  Corn plant response rating: 0
[1]; Zea mays, post-emergence, 240 h, 31 g ai/ha, Postemergence, 0 to 100 scale, 0 no effect, 100 complete control
  Corn plant response rating (crop injury, 0 = no effect, 100 = complete kill) at 31 g/ha: 0%
[1]; Zea mays, post-emergence, 240 h, postemergence, 0 to 100 scale, 0 no effect, 100 complete control
  Corn plant response rating (crop injury, 0 = no effect, 100 = complete kill) at 125 g/ha: 0%
[1]; Zea mays, pre-emergence, 240 h, Preemergence, 0 to 100 scale where 0 is no effect and 100 is complete control
  Corn plant response rating (crop injury, 0 = no effect, 100 = complete kill) at 125 g/ha: 0%
[2]; Ipomoea, post-emergence, 240 h, 31 g ai/ha, Postemergence, 0 to 100 scale, 0 no effect, 100 complete control, read-out: Plant response rating, Morningglory
  pest or weed control at 31 g/ha: 0%
[2]; Ipomoea, post-emergence, 240 h, postemergence, 0 to 100 scale, 0 no effect, 100 complete control, read-out: Plant response rating, Morningglory
  pest or weed control at 125 g/ha: 10%
[2]; Ipomoea, pre-emergence, 240 h, Preemergence, 0 to 100 scale where 0 is no effect and 100 is complete control, read-out: Plant response rating, Morningglory
  pest or weed control at 125 g/ha: 0%
[2]; [11]
  Morningglory plant response rating: 0
[3]; Amaranthus retroflexus, post-emergence, 240 h, 31 g ai/ha, Postemergence, 0 to 100 scale, 0 no effect, 100 complete control, read-out: Plant response rating, Pigweed
  pest or weed control at 31 g/ha: 60%
[3]; Amaranthus retroflexus, post-emergence, 240 h, postemergence, 0 to 100 scale, 0 no effect, 100 complete control, read-out: Plant response rating, Pigweed
  pest or weed control at 125 g/ha: 70%
[3]; Amaranthus retroflexus, pre-emergence, 240 h, Preemergence, 0 to 100 scale where 0 is no effect and 100 is complete control, read-out: Plant response rating, Pigweed
  pest or weed control at 125 g/ha: 0%
[3]; [11]
  Pigweed plant response rating: 0
[4]; Echinochloa crus-galli, post-emergence, 240 h, 31 g ai/ha, Postemergence, 0 to 100 scale, 0 no effect, 100 complete control, read-out: Plant response rating, Barnyardgrass
  pest or weed control at 31 g/ha: 0%
[4]; Echinochloa crus-galli, post-emergence, 240 h, postemergence, 0 to 100 scale, 0 no effect, 100 complete control, read-out: Plant response rating, Barnyardgrass
  pest or weed control at 125 g/ha: 0%
[4]; Echinochloa crus-galli, pre-emergence, 240 h, Preemergence, 0 to 100 scale where 0 is no effect and 100 is complete control, read-out: Plant response rating, Barnyardgrass
  pest or weed control at 125 g/ha: 0%
[4]; [11]
  Barnyardgrass plant response rating: 0
[5]; Digitaria sanguinalis, post-emergence, 240 h, 31 g ai/ha, Postemergence, 0 to 100 scale, 0 no effect, 100 complete control, read-out: Plant response rating, Crabgrass, Large
  pest or weed control at 31 g/ha: 0%
[5]; Digitaria sanguinalis, post-emergence, 240 h, postemergence, 0 to 100 scale, 0 no effect, 100 complete control, read-out: Plant response rating, Crabgrass, Large
  pest or weed control at 125 g/ha: 10%
[5]; Digitaria sanguinalis, pre-emergence, 240 h, Preemergence, 0 to 100 scale where 0 is no effect and 100 is complete control, read-out: Plant response rating, Crabgrass, Large
  pest or weed control at 125 g/ha: 0%
[5]; [11]
  Crabgrass, Large plant response rating: 0
[6]; Abutilon theophrasti, post-emergence, 240 h, 31 g ai/ha, Postemergence, 0 to 100 scale, 0 no effect, 100 complete control, read-out: Plant response rating, Velvetleaf
  pest or weed control at 31 g/ha: 0%
[6]; Abutilon theophrasti, post-emergence, 240 h, postemergence, 0 to 100 scale, 0 no effect, 100 complete control, read-out: Plant response rating, Velvetleaf
  pest or weed control at 125 g/ha: 0%
[6]; Abutilon theophrasti, pre-emergence, 240 h, Preemergence, 0 to 100 scale where 0 is no effect and 100 is complete control, read-out: Plant response rating, Velvetleaf
  pest or weed control at 125 g/ha: 0%
[6]; [11]
  Velvetleaf plant response rating: 0
[7]; Triticum aestivum, post-emergence, 240 h, 31 g ai/ha, Postemergence, 0 to 100 scale, 0 no effect, 100 complete control, read-out: Plant response rating, Wheat
  plant injury at 31 g/ha: 0%
[7]; Triticum aestivum, post-emergence, 240 h, postemergence, 0 to 100 scale, 0 no effect, 100 complete control, read-out: Plant response rating, Wheat
  plant injury at 125 g/ha: 0%
[7]; Triticum aestivum, pre-emergence, 240 h, Preemergence, 0 to 100 scale where 0 is no effect and 100 is complete control, read-out: Plant response rating, Wheat
  plant injury at 125 g/ha: 0%
[8]; [11]
  Foxtail, Giant plant response rating: 0
[8]; Setaria faberi, post-emergence, 240 h, 31 g ai/ha, Postemergence, 0 to 100 scale, 0 no effect, 100 complete control, read-out: Plant response rating, Foxtail, Giant
  pest or weed control at 31 g/ha: 0%
[8]; Setaria faberi, post-emergence, 240 h, postemergence, 0 to 100 scale, 0 no effect, 100 complete control, read-out: Plant response rating, Foxtail, Giant
  pest or weed control at 125 g/ha: 0%
[8]; Setaria faberi, pre-emergence, 240 h, Preemergence, 0 to 100 scale where 0 is no effect and 100 is complete control, read-out: Plant response rating, Foxtail, Giant
  pest or weed control at 125 g/ha: 0%
